Entries after “also recorded” stand apart in the source; their conditions may differ. Like-named read-outs stand apart in the source and are kept apart here.
Assays:
Flag-Tat = biological target: T1, Flag-Tat (Human immunodeficiency virus type 1 (HXB3 ISOLATE), UniProt P69698); experiment: Degradation assay: Flag-Tat in HEK293T cells, western blot; format: cell-based, HIV; settings: for effect of chloroquine or NH4Cl on compound induced Flag-Tat degradation: Chloroquine 100 μM or NH4Cl 50 mM, 8 hrs; for Flag-Tat degradation / steady state: western blot; for effect of Lenalidomide on compound induced Flag-Tat degradation: Lenalidomide 40 μM, 4 hrs; for effect of MG132 on compound induced Flag-Tat degradation: MG132 20 μM, 17 hrs
T1 construct: Tat 86 aa likely (9 lysines)
Description: Next, the effect of the three leads on the alteration of Tat steady state levels was assessed. Tat expression from an integrated provirus, or from HIV acute infection is generally too low to be detected by western blot. Furthermore, antibodies against Tat are known for their lack of avidity. Tat degradation was thus assessed upon transfection. Flag-Tat or Flag-GFP were individually transfected into HEK293T and 24 hrs later, TT-44856, TT-44863 or TT-44881 were added to the culture, followed by Western blot 24 hrs later (dubbed “degradation assay”) (FIG. 5A). […] These cells were treated with TNFα (previously determined not be degraded by the three leads in FIG. 2D) in the presence of TT-44856, TT-44863 or TT-44881, followed by western blot with an anti-Flag antibody 17 hrs later. […] Finally, the leads' impact on recombinant Tat protein in HEK293T cells was assessed (FIG. 5D). HEK293T cells were incubated with recombinant Tat for 4 hrs to allow Tat internalization, followed by several thorough washes to remove unincorporated Tat. Cells were then incubated with all three leads (or Triptolide) for an additional 2 hrs. Cells were lysed and analyzed by western blot with an anti-Tat serum.
Degradation of Tat has been reported in the literature in multiple ways, including the lysosomal pathway^23, the ubiquitin-independent 20S proteasomal pathway (due to its unfolded structure)^24,25, and the ubiquitin-dependent 26S proteasomal pathway^26. It was first assessed whether Tat was targeted to the lysosomal pathway by the lead compounds. HEK293T cells were transfected with Flag-Tat for 24 hrs, incubated with the compounds for an additional 24 hrs, then treated for 8 hrs with either 100 μM chloroquine or 50 mM NH4Cl, both known to inhibit lysosomal hydrolases by reducing acidification. […] Both the 20S and the 26S proteasomal pathways were next investigated using MG132, an inhibitor of the catalytic […] of 20S present in both pathways^27. The degradation assay was carried out as above, but compounds were simultaneously incubated with MG132 20 μM or DMSO for 17 hrs followed by western blot. In the presence of MG132, Tat degradation was rescued, but the rescue was higher in the presence of the lead compounds (FIG. 6B).
Protein ubiquitination occurs by sequential recruitment of ubiquitin-activating enzyme E1, ubiquitin-conjugating enzyme E2, and ubiquitin ligase E3 (using ubiquitin, substrate protein, and ATP). The selectivity in protein ubiquitination is conferred by E3 ubiquitin ligases that recognize the substrate proteins^29 and the human genome contains more than 600 E3 ubiquitin ligases^29. To determine whether the small molecule leads trigger the 20S or the 26S proteasomal pathways, the Tat degradation assay was performed in the presence of commercially available E3 ligase inhibitors, including Lenalidomide a E3 ubiquitin ligase Cereblon inhibitor. Cereblon has not been previously reported to ubiquitinate Tat. The degradation assays were performed as above with Lenalidomide (40 μM) or DMSO incubation for 4 hrs in the presence of the lead molecules (FIG. 7A). […] To confirm the engagement of Cereblon in the mechanism of action of the lead compounds, shRNAs were used to stably knock down Cerebelon, or CD8 control, in HEK293T cells, and the degradation assay for TT-44856 was performed.
The involvement of the ubiquitous VHL E3 ligase in the activity of TT-44881 inducing Tat degradation was also investigated. HEK293T cells overexpressing Tat protein and VHL siRNAs (or si control) were treated with either TT-44881 (60 μM) and DMSO or TT-44881 with a VHL PROTAC (CM11, 500 nM) for 24 hours. siRNAs and PROTACs were used together to maximize the depletion of both VHL isoforms (30 and 19 kDa).

HIV NL4.3 strain = experiment: HIV infectivity assay, reporter cell line HeLa-CD4-LTR-LacZ, β-Gal activity (Tat protein inhibition); format: cell-based, HIV-1 (NL4.3)
Outline: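 HeLa-CD4-LTR-LacZ reporter cells (β-Gal under HIV 5′ LTR) infected with HIV NL4.3; β-Gal activity read 72 h post infection, with parallel Cell-Titer-Glo viability. OM10.1 carry a single wild-type provirus; ACH-2 a single provirus with TAR C37T mutation, defective Tat-TAR feedback.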

PL11 cells = experiment: Tat independent transactivation counter-screen with TNFα, PL11 cells; format: cell-based; settings: PL11 cells activated with TNFα
From the text: Tat is a 14 kDa protein that is synthesized from an mRNA joined from 2 coding exons (FIG. 1B). The first exon encodes amino acids 1-72 and (in most strains of HIV), the second exon encodes amino acids 73-101. An N-terminal 86-amino acid form of Tat produced in a few laboratory-passaged virus strains is frequently used to study Tat. The classic cell-based Tat transactivation assay of the HIV LTR driving luciferase was optimized as a reporter gene for HTS9 (FIG. 2A). The assay concept is exceptionally robust, includes all the cellular components needed for transcriptional activation, and is very well-suited for an HTS for Tat antagonists. Compared with alternative approaches, this classic assay consistently outperformed the others. […] LTR activation is triggered by transfection of a plasmid expressing HIV-1HXB3 Tat (101 a.a.) driven by the phosphoglycerate (PGK) promoter. The assay called “Tat-TAR assay” was validated, and found robust and very well suited for an HTS platform, with a signal to background ratio of 407:1, a signal to noise ratio of 10:1, and a Z′=0.67. The cytotoxicity screen was performed in parallel (Cell-Titer-Glo, Promega), showing a signal to background ratio 898:1, signal to noise ratio 21:1 and a Z′=0.86. […] These hits were counter-screened in a Tat independent transactivation assay using TNFα to activate PL11 cells, resulting in the selection of 30 hits.

OM10.1 cells = experiment: SAHA mediated reactivation from latency in OM10.1 cells; format: cell-based, HIV; settings: day 12 and day 32, vs DMSO+ARVs
ACH-2 cells = experiment: Cell-associated HIV Gag mRNA expression / HIV transcription in latently infected ACH-2 cells; format: cell-based; settings: ACH2; 96-day period with ARVs; n=1
Description: Next, the activity of these leads against HIV infection was evaluated using the reporter cell line HeLa-CD4-LTR-LacZ, which stably expresses the β-galactosidase (β-Gal) gene under the control of the HIV 5′ LTR. The HIV NL4.3 strain was used for these studies and β-Gal activity was measured 72 hrs post infection (FIG. 3A). Cytotoxicity assays using Cell-Titer-Glo were performed in parallel to assess cell viability (FIG. 3A). […] Their anti-HIV activity was further assessed in acute replication of Jurkat T cells with the NL4.3 strain (FIG. 3A). […] These OM10.1 cells contain a single integrated wild-type provirus, while ACH-2 cells contain a single integrated provirus with a TAR mutation C37T, defective Tat-TAR feedback loop (FIG. 3B).

ACH2 cells = experiment: SAHA mediated reactivation from latency in ACH2 cells; format: cell-based, HIV; settings: text: day 12 and 32, FIG. 4B legend: day 12, vs DMSO+ARVs
[1] = Human immunodeficiency virus 1, 72 h, read-out: IC50 against HIV infection, HeLa-CD4-LTR-LacZ, HIV NL4.3, β-Gal 72 hrs post infection

T1 sequence (P69698 whole entry): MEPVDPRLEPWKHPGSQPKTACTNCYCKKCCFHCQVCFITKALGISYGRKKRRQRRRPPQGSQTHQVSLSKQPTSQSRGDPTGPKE

SMILES | effect of chloroquine or NH4Cl on compound induced Flag-Tat degradation (Flag-Tat; n=1) | Flag-Tat degradation / steady state (Flag-Tat; HEK293T) | effect of Lenalidomide on compound induced Flag-Tat degradation (Flag-Tat) | effect of MG132 on compound induced Flag-Tat degradation (Flag-Tat) | Flag-Tat degradation upon Cereblon knockdown (Flag-Tat; shRNA Cereblon, HEK293T, TT-44856 40 μM, n=1) | IC50 (HIV NL4.3 strain; [1]) [µM] | IC50 (HIV NL4.3 strain; Human immunodeficiency virus 1, read-out: Infectivity IC50, HeLa-CD4-LTR-LacZ, analogs of TT-44856 (Table 3)) [µM] | Tat specificity in TNFα counter-screen (PL11 cells) | SAHA mediated reactivation from latency (OM10.1 cells) | HIV transcription (in words) (ACH-2 cells) | IC50 (HIV NL4.3 strain; Human immunodeficiency virus 1, read-out: Infectivity IC50, HeLa-CD4-LTR-LacZ, analogs of TT-44863 (Table 2)) [µM] | SAHA mediated reactivation from latency (ACH2 cells) | Tat degradation upon VHL depletion (Flag-Tat; VHL siRNA and VHL PROTAC CM11 500 nM, 24 hours, TT-44881 60 μM) | IC50 (HIV NL4.3 strain; Human immunodeficiency virus 1, read-out: Infectivity IC50, HeLa-CD4-LTR-LacZ, analogs of TT-44881 (Table 1)) [µM]
CC(C(=O)NCCCn1ccnc1)(c1ccccc1)c1ccccc1 [TT-44856] | do not prevent lead hits induced Flag-Tat degradation | Tat protein degradation was observed | prevents Tat compounds induced Flag-Tat degradation | prevents lead hits induced Flag-Tat degradation | no longer engaging Flag-Tat for degradation; also recorded: diminishes TT-44856 induced Flag-Tat degradation | 20.5 ± 9.5 | 1 to 20 | Tat specific | – | – | – | – | – | –
COCCOc1ccc(C(F)(F)F)cc1NC(=O)Cn1cc(C(F)(F)F)cc(Cl)c1=O [TT-44863] | do not prevent lead hits induced Flag-Tat degradation | Tat protein degradation was observed | prevents Tat compounds induced Flag-Tat degradation | prevents lead hits induced Flag-Tat degradation | – | 6 ± 1.3 | – | Tat specific | potently blocked SAHA mediated reactivation from latency | inhibit HIV transcription | 1 to 10 | potently blocked SAHA mediated reactivation from latency | – | –
O=C(CCCCN1CCCC1=O)c1nn(-c2ccccc2)c2c1CCC2 [TT-44881] | do not prevent lead hits induced Flag-Tat degradation | Tat protein degradation was observed | prevents Tat compounds induced Flag-Tat degradation | prevents lead hits induced Flag-Tat degradation | – | 19.7 ± 4.5 | – | Tat specific | potently blocked SAHA mediated reactivation from latency | inhibit HIV transcription | – | potently blocked SAHA mediated reactivation from latency | no longer depleted | 1 to 20
